Data reported in US5618675A, “Methods and compositions for detecting lipopolysaccharides using CAP18 fragments” (Panorama Research, Inc., dated 1997).

Key:
ddY mice = experiment: Tissue factor lethality model; assay type: in vivo; conditions: for Survival (%) / No. of Mice (dead/total) / Survival time: Tissue factor 1.0 mg/mouse IV; for Survival (%): control 0; for No. of Mice (dead/total): control 7/7; for Survival time: control 187 ± 70
Procedure: Reference tissue factor (Simplastin, 1 mg/mouse) was IV injected into ddY mice (male, 20-week-old, 38-45 g) incubated with or without peptide.
The anticoagulant activity of the RNIP peptides was studied in an acute animal model. Direct injection of tissue factor IV (Simplastin, 1 mg/mouse) produces acute intravascular coagulation and death within three minutes.
^a Tissue factor (Simplastin, 10 mg/ml was mixed with equal volume of
synthetic peptide 100 μg/ml or 50 μg/ml and 0.2 ml of the mixture
injected IV. ddY mice (20 weeks, 38-45 gm).

[1] = system: E. coli 09:K39 K^- strain; experiment: Antibacterial CFU assay; conditions: FIG. 6H
E. coli = experiment: Antibacterial CFU assay; conditions: read-out: IC50, inhibition of CFU; FIG. 6I

Substance: RNIP: reactive nitrogen inhibitory protein, amino acids 135-171 of SEQ ID NO:4 (rabbit CAP18 C-terminus); purified from granulocytes or synthetic (#197) (GLRKRLRKFRNKIKEKLKKIGQKIQGLLPKLAPRTDY)
- Survival (%) (ddY mice; Peptide #197 5 μg/mouse): 43%
- No. of Mice (dead/total) (ddY mice; Peptide #197 5 μg/mouse): 4/7
- Survival time (ddY mice; Peptide #197 5 μg/mouse): 228 ± 48 s
- Survival (%) (ddY mice; Peptide #197 10 μg/mouse, p < 0.05): 57%
- No. of Mice (dead/total) (ddY mice; Peptide #197 10 μg/mouse): 3/7
- Survival time (ddY mice; Peptide #197 10 μg/mouse): 305 s
- reduction of mortality (ddY mice; tissue factor IV 1 mg/mouse): 57%
- anti-bacterial IC50 [1]: 0.68 µg/mL
- IC50 ([1]; read-out: anti-bacterial IC50): 110 nM
- IC50 (E. coli): 80 nM
